Measurements from the supplement of paper PMC11061612.

Key:
[1] = system: HSC-2 (Oral Cavity Carcinoma); experiment: Bliss excess, mean over the matrix (fraction); higher = more synergy
In short: (§1)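 After 24 hours at 37°C and 5% CO2 in 1536-well plates, cells in DMEM/F12 or RPMI plus 10% FBS received two-drug dose matrices for 72 hours. Viability came from CellTiter-Glo 2.0 luminescence and was scaled as inhibition, anchored at 0 by vehicle wells and at 1 by blank wells. Combination Emax is taken as the second-highest inhibition in the matrix, and Bliss excess as the observed combination effect less EA + EB − EA·EB, with EA and EB the single-agent effects.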

[2] = system: H-EMC-SS (Chondrosarcoma); experiment: as above
In short: as §1

[3] = system: SNU-C1 (Colorectal Carcinoma); experiment: as above
In short: as §1

[4] = system: OCUM-1 (Gastric Carcinoma); experiment: as above
In short: as §1

[5] = system: LC4-1 (B-Lymphoblastic Leukemia); experiment: as above
In short: as §1

EW-3 (Ewing's Sarcoma) [6] = experiment: as above
In short: as §1

[7] = system: TGBC11TKB (Gastric Carcinoma); experiment: as above
In short: as §1

[8] = system: SCC-9 (Oral Cavity Carcinoma); experiment: as above
In short: as §1

[9] = system: OCUB-M (Breast Carcinoma); experiment: as above
In short: as §1

GI-1 (Glioblastoma) [10] = experiment: as above
In short: as §1

[11] = system: NCI-N87 (Gastric Carcinoma); experiment: as above
In short: as §1

[12] = system: JHH-7 (Hepatocellular Carcinoma); experiment: as above
In short: as §1

[13] = system: VMRC-LCD (Lung Adenocarcinoma); experiment: as above
In short: as §1

NB7 (Neuroblastoma) [14] = experiment: as above
In short: as §1

[15] = system: KINGS-1 (Low Grade Glioma); experiment: as above
In short: as §1

[16] = system: HSC-2 (Oral Cavity Carcinoma); experiment: combination Emax (second highest fraction inhibited in the dose matrix, 72 h); higher = more inhibition; extreme values may be limits of the assay
In short: as §1

[17] = system: H-EMC-SS (Chondrosarcoma); experiment: as above
In short: as §1

[18] = system: SNU-C1 (Colorectal Carcinoma); experiment: as above
In short: as §1

[19] = system: OCUM-1 (Gastric Carcinoma); experiment: as above
In short: as §1

[20] = system: LC4-1 (B-Lymphoblastic Leukemia); experiment: as above
In short: as §1

EW-3 (Ewing's Sarcoma) [21] = experiment: as above
In short: as §1

[22] = system: TGBC11TKB (Gastric Carcinoma); experiment: as above
In short: as §1

[23] = system: SCC-9 (Oral Cavity Carcinoma); experiment: as above
In short: as §1

[24] = system: OCUB-M (Breast Carcinoma); experiment: as above
In short: as §1

GI-1 (Glioblastoma) [25] = experiment: as above
In short: as §1

[26] = system: NCI-N87 (Gastric Carcinoma); experiment: as above
In short: as §1

[27] = system: JHH-7 (Hepatocellular Carcinoma); experiment: as above
In short: as §1

[28] = system: VMRC-LCD (Lung Adenocarcinoma); experiment: as above
In short: as §1

NB7 (Neuroblastoma) [29] = experiment: as above
In short: as §1

[30] = system: KINGS-1 (Low Grade Glioma); experiment: as above
In short: as §1
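Throughout, for Bliss excess, mean over the matrix: after 72 h of two-drug dosing.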

Compound | Bliss excess [1] | Bliss excess [2] | Bliss excess [3] | Bliss excess [4] | Bliss excess [5] | Bliss excess (EW-3 (Ewing's Sarcoma) [6]) | Bliss excess [7] | Bliss excess [8] | Bliss excess [9] | Bliss excess (GI-1 (Glioblastoma) [10]) | Bliss excess [11] | Bliss excess [12] | Bliss excess [13] | Bliss excess (NB7 (Neuroblastoma) [14]) | Bliss excess [15] | combination Emax [16] | combination Emax [17] | combination Emax [18] | combination Emax [19] | combination Emax [20] | combination Emax (EW-3 (Ewing's Sarcoma) [21]) | combination Emax [22] | combination Emax [23] | combination Emax [24] | combination Emax (GI-1 (Glioblastoma) [25]) | combination Emax [26] | combination Emax [27] | combination Emax [28] | combination Emax (NB7 (Neuroblastoma) [29]) | combination Emax [30]
O=C(c1cc(Cc2n[nH]c(=O)c3ccccc23)ccc1F)N1CCN(C(=O)C2CC2)CC1 [Olaparib] + COc1nnc2ccc(N3CCC(c4ccc(OCCN5CCN(C)C(=O)[C@H]5C)cc4)CC3)nn12 [AZD5153] (first compound max 10 µM, 7x7, partner max 1 µM) | -0.0679 | -0.0456 | -0.0531 | -0.0755 | -0.115 | -0.0528 | -0.0543 | -0.0418 | -0.0609 | 0.0092 | -0.019 | -0.0336 | -0.0707 | -0.0339 | -0.0773 | 0.563 | 0.218 | 0.524 | 0.488 | 0.899 | 0.842 | 0.284 | 0.288 | 0.384 | 0.738 | 0.528 | 0.237 | 0.35 | 0.359 | 0.0844
C[C@@H](Oc1cc(-c2cnn(C3CCNCC3)c2)cnc1N)c1c(Cl)ccc(F)c1Cl [Crizotinib] + CC1=C(C(=CC=C1)Cl)NC(=O)C2=CN=C(S2)NC3=CC(=NC(=N3)C)N4CCN(CC4)CCO [Dasatinib] (first compound max 10 µM, 7x7, partner max 2 µM) | -0.0097 | -0.004 | -0.056 | -0.0693 | -0.0147 | -0.0728 | -0.0343 | 0.0429 | -0.0666 | 0.132 | -0.0251 | -0.0142 | -0.0545 | 0.0924 | 0.0575 | 0.923 | 0.402 | 0.683 | 0.354 | 0.866 | 0.571 | 0.176 | 0.966 | 0.391 | 0.969 | 0.607 | 0.422 | 0.657 | 0.689 | 0.788
Cc1c2c(nn1C)CSCc1cc(n(C)n1)CSc1cc(c3ccccc3c1)OCCCc1c(C(=O)O)n(C)c3c-2c(Cl)ccc13 [AZD5991] + CS(=O)(=O)CCNCc1ccc(-c2ccc3ncnc(Nc4ccc(OCc5cccc(F)c5)c(Cl)c4)c3c2)o1 [Lapatinib] (first compound max 1 µM, 7x7, partner max 10 µM) | 0.0287 | -0.0134 | -0.0746 | -0.0754 | 0.0538 | -0.028 | 0.0676 | 0.0313 | 0.0617 | -0.0104 | 0.0077 | 0.0061 | 0.0626 | 0.0109 | -0.0437 | 0.998 | 0.3 | 0.425 | 0.239 | 0.97 | 0.597 | 0.839 | 0.984 | 1 | 0.577 | 0.967 | 0.348 | 0.33 | 0.593 | 0.215
Cc1cc2ncnn2cc1Nc1ncc2c(n1)n(C1CCOCC1)c(=O)n2C [AZD7648] + COc1cc([C@@H]2c3cc4c(cc3[C@@H](O[C@@H]3O[C@@H]5CO[C@@H](C)O[C@H]5[C@H](O)[C@H]3O)[C@H]3COC(=O)[C@H]23)OCO4)cc(OC)c1O [Etoposide] (first compound max 10 µM, 7x7, partner max 10 µM) | 0.128 | 0.0506 | -0.0254 | 0.0899 | 0.0856 | 0.0762 | -0.0517 | 0.006 | 0.0176 | 0.0946 | -0.0062 | 0.0547 | 0.171 | 0.0544 | 0.061 | 0.866 | 0.524 | 0.275 | 0.557 | 1 | 0.855 | 0.0573 | 0.481 | 0.885 | 0.907 | 0.697 | 0.642 | 0.555 | 0.909 | 0.516
C[C@@H](Oc1cc(-c2cnn(C3CCNCC3)c2)cnc1N)c1c(Cl)ccc(F)c1Cl [Crizotinib] + Cn1cnc2c(F)c(Nc3ccc(Br)cc3Cl)c(C(=O)NOCCO)cc21 [Selumetinib] (first compound max 10 µM, 7x7, partner max 10 µM) | -0.0618 | -0.0166 | 0.0325 | 0.0251 | -0.0198 | -0.134 | 0.0524 | 0.0117 | 0.0034 | -0.0355 | -0.0764 | -0.0152 | -0.0474 | -0.0033 | 0.0342 | 0.551 | 0.405 | 0.892 | 0.936 | 0.896 | 0.525 | 0.557 | 0.919 | 0.458 | 0.602 | 0.383 | 0.56 | 0.665 | 0.443 | 0.799
